For data set [1], the target named is T1, hSSADH (human succinic semialdehyde dehydrogenase) (Homo sapiens, UniProt P51649).
T1 construct: gene ALDH5A1; purified recombinant homotetramer, expressed and purified as in Didiasova et al. 2024
T1 sequence (P51649 48-535): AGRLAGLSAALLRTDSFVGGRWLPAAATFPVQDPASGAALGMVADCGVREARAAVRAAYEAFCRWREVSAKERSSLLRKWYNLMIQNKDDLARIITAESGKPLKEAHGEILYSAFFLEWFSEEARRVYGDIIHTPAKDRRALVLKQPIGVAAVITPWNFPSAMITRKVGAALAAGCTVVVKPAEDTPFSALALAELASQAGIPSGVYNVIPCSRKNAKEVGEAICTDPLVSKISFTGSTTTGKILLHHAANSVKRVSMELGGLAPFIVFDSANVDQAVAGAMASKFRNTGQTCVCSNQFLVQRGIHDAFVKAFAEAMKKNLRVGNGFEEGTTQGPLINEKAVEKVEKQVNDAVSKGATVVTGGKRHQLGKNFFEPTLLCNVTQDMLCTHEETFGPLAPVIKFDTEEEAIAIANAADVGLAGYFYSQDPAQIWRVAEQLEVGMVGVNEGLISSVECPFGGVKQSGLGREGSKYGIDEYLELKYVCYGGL
The experiment in a line: product inhibition, NADH […], replots of slopes and intercepts. Format: biochemical.

Data set [2] has as its target T1, hSSADH (human succinic semialdehyde dehydrogenase). Description: intrinsic fluorescence quenching (ex […] nm, em […] nm), hyperbolic fit. Format: binding.
Data set [3] addresses T2, hSSADH (human succinic semialdehyde dehydrogenase) (Homo sapiens, UniProt P51649, K214A).
T2 construct: gene ALDH5A1; purified recombinant homotetramer, expressed and purified as in Didiasova et al. 2024
T2 sequence (P51649 48-535 K214A): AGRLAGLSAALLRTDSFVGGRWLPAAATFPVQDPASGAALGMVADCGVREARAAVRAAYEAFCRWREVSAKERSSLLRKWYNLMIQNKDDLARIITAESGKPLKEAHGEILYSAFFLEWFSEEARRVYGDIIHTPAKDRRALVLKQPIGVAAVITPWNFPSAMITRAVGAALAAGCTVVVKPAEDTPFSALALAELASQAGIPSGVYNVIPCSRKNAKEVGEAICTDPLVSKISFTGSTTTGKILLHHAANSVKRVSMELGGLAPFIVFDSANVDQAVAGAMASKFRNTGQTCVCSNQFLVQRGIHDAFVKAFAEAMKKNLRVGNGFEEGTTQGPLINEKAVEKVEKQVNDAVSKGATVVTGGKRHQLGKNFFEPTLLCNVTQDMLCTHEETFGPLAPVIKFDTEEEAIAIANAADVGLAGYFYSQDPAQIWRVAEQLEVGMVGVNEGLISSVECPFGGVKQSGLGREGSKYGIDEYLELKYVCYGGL
Described as above. The data set is classed as binding. Particulars: read-out: K DNAD+.

Data set [4] deals with T3, hSSADH (human succinic semialdehyde dehydrogenase) (Homo sapiens, UniProt P51649, E306Q).
T3 construct: gene ALDH5A1; purified recombinant homotetramer, expressed and purified as in Didiasova et al. 2024
T3 sequence (P51649 48-535 E306Q): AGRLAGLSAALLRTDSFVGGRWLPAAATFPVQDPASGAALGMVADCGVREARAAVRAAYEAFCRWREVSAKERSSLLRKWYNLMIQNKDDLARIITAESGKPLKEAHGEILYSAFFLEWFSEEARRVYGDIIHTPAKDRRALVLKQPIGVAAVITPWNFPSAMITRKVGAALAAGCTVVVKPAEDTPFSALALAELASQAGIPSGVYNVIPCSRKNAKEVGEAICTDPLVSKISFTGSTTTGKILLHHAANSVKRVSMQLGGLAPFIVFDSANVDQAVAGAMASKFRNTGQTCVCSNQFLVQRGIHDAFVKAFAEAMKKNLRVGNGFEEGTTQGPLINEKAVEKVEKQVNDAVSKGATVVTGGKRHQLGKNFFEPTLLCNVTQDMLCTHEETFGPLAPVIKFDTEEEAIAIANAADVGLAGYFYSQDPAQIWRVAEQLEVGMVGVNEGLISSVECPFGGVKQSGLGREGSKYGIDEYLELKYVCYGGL
The data set is described as above. Particulars: read-out: K DNAD+. The data set is classed as binding.

Data set [5] deals with T1, hSSADH (human succinic semialdehyde dehydrogenase). Description: initial rates, NADH fluorescence (ex […], em […] nm), global fit to Equation ([…]). The data set is classed as biochemical. The conditions noted are these: partial non-competitive substrate inhibition, co-substrate NAD+, pH 8, potassium phosphate.
Substrate in data set [6]: NC(=O)c1ccc[n+]([C@@H]2O[C@H](COP(=O)([O-])OP(=O)(O)OC[C@H]3O[C@@H](n4cnc5c(N)ncnc54)[C@H](O)[C@@H]3O)[C@@H](O)[C@H]2O)c1
Description: purified protein. The conditions noted are these: co-substrate SSA, pH 8, 100 mM potassium phosphate, 14°C, ordered bi-bi, partial substrate inhibition fit, varied: cofactor. The data set is classed as biochemical, Homo sapiens.

Substrate in data set [7]: O=CCCC(=O)O
Description: purified protein. The data set is classed as biochemical, Homo sapiens. The conditions noted are these: co-substrate NAD+, pH 8, 100 mM potassium phosphate, 14°C, ordered bi-bi, partial substrate inhibition fit.

Data set [8] deals with the molecule itself. Description: not stated; purified recombinant hSSADH; the experiment on the oligomeric state is in Data S1 (not shown).

What is called Ki is a measure of affinity in units of concentration, obtained from inhibition or displacement. On to `NC(=O)C1=CN([C@@H]2O[C@H](COP(=O)(O)OP(=O)(O)OC[C@H]3O[C@@H](n4cnc5c(N)ncnc54)[C@H](O)[C@@H]3O)[C@@H](O)[C@H]2O)C=CC1` [NADH], for which the affinity in data set [1] corresponds to a Ki of 15 ± 2 µM.
With `NC(=O)c1ccc[n+]([C@@H]2O[C@H](COP(=O)([O-])OP(=O)(O)OC[C@H]3O[C@@H](n4cnc5c(N)ncnc54)[C@H](O)[C@@H]3O)[C@@H](O)[C@H]2O)c1` [NAD^+], the Kd in data set [2] was determined as 4.5 ± 0.8 µM; in data set [3], 2.5 ± 0.2 µM; in data set [4] it was 4.3 ± 0.4 µM.
Take `O=CCCC(=O)O` [SSA]: the “From Equation (5) (14°C)” value in data set [5] is 13 ± 3 µM.

B1: hSSADH (human succinic semialdehyde dehydrogenase) (Homo sapiens) (protein)
chain: AGRLAGLSAALLRTDSFVGGRWLPAAATFPVQDPASGAALGMVADCGVREARAAVRAAYEAFCRWREVSAKERSSLLRKWYNLMIQNKDDLARIITAESGKPLKEAHGEILYSAFFLEWFSEEARRVYGDIIHTPAKDRRALVLKQPIGVAAVITPWNFPSAMITRKVGAALAAGCTVVVKPAEDTPFSALALAELASQAGIPSGVYNVIPCSRKNAKEVGEAICTDPLVSKISFTGSTTTGKILLHHAANSVKRVSMELGGLAPFIVFDSANVDQAVAGAMASKFRNTGQTCVCSNQFLVQRGIHDAFVKAFAEAMKKNLRVGNGFEEGTTQGPLINEKAVEKVEKQVNDAVSKGATVVTGGKRHQLGKNFFEPTLLCNVTQDMLCTHEETFGPLAPVIKFDTEEEAIAIANAADVGLAGYFYSQDPAQIWRVAEQLEVGMVGVNEGLISSVECPFGGVKQSGLGREGSKYGIDEYLELKYVCYGGL
notes: purified recombinant homotetramer, expressed and purified as in Didiasova et al. 2024
As a reminder, the Km is the concentration of substrate that gives half-maximal velocity. Usually kcat stands for the maximal rate divided by the concentration of active sites. For B1, the Km in the data set “purified protein [6]” was found to be 31 ± 5 µM; in “purified protein [7]”, 1.2 ± 0.2 µM. Also, the kcat in “purified protein [6]” and in the data set “purified protein [7]” was 26 ± 2 s⁻¹ in each case.

B2: Human succinic semialdehyde dehydrogenase (enzyme)
chain: GRLAGLSAALLRTDSFVGGRWLPAAATFPVQDPASGAALGMVADCGVREARAAVRAAYEAFCRWREVSAKERSSLLRKWYNLMIQNKDDLARIITAESGKPLKEAHGEILYSAFFLEWFSEEARRVYGDIIHTPAKDRRALVLKQPIGVAAVITPWNFPSAMITRKVGAALAAGCTVVVKPAEDTPFSALALAELASQAGIPSGVYNVIPCSRKNAKEVGEAICTDPLVSKISFTGSTTTGKILLHHAANSVKRVSMELGGLAPFIVFDSANVDQAVAGAMASKFRNTGQTCVCSNQFLVQRGIHDAFVKAFAEAMKKNLRVGNGFEEGTTQGPLINEKAVEKVEKQVNDAVSKGATVVTGGKRHQLGKNFFEPTLLCNVTQDMLCTHEETFGPLAPVIKFDTEEEAIAIANAADVGLAGYFYSQDPAQIWRVAEQLEVGMVGVNEGLISSVECPFGGVKQSGLGREGSKYGIDEYLELKYVCYGGL
notes: Human succinic semialdehyde dehydrogenase (EC 1.2.1.24), gene ALDH5A1; this is surmised; also called hSSADH; WT hSSADH; source: recombinant, expressed and purified as described (Didiasova et al. 2024)
Usually stoichiometry N stands for a count of units in the complex or per binding partner. In the case of B2, the “stoichiometry N” value in data set [8] came out at 4.

These data come from paper PMC11681614, “A crucial active site network of titratable residues guides catalysis and NAD ^+ binding in human succinic semialdehyde dehydrogenase” (Protein Science : A Publication of the Protein Society, 2024).
